Assay results published in patent publication US9926319B2, “Pyridyl piperidines” (MERCK PATENT GMBH, priority 2014, dated 2018).

What was measured:
[1] = CLint (intrinsic clearance) assay, microsomal incubation; format: in vitro ADME, Human; conditions: NADPH, 37° C., up to 30 min; for microsomal CLint at 0.8 μM: human, liver microsomes, pH 7.4, human liver microsomes 0.5 mg/mL protein
In short: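 Test compound at 0.8 μM was incubated at 37 °C with liver microsomes at 0.5 mg/mL protein in 0.1 M potassium phosphate pH 7.4 with 1 mM MgCl2, NADPH-started, with no-cofactor controls. Acetonitrile quench at 0, 5, 10, 20 and 30 min, then LC-MS/MS peak-area decline. CLint (μL/min/mg protein) = k·1000/protein concentration.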

Wnt pathway = assay: Cellular assay for Wnt pathway activity (luciferase reporter cell based assay); conditions: 24 h, HEK293 luciferase reporter cell line (ER-DSH, TCF dependent promoter), induced with estrogen (1 μM), read-out: 7df3 IC50

Row | SMILES | microsomal CLint at 0.8 μM [1] [µL/min/mg] | IC50 (Wnt pathway) [nM] | Human Clint ([1]; human liver microsomes 0.5 mg/mL protein) [µL/min/mg]
1 | Cn1cc(-c2ccc(-c3cncc(Cl)c3N3CCC(F)(C(N)=O)CC3)cc2)cn1 [Example 25, 5′-Chloro-4-fluoro-3′-[4-(1-methyl-1H-pyrazol-4-yl)-phenyl]-3,4,5,6-tetrahydro-2H-[1,4′]bipyridinyl-4-carboxylic acid amide] | 23 | 7 | 
2 | N#CCCn1cc(-c2ccc(-c3cncc(Cl)c3N3CCC4(CC3)CNC(=O)O4)cc2)cn1 [Example 40, 3-(4-{4-[5-Chloro-4-(2-oxo-1-oxa-3,8-diaza-spiro[4.5]dec-8-yl)-pyridin-3-yl]-phenyl}-pyrazol-1-yl)-propionitrile] | 61 | 3.9 | 
3 | CC(C)n1cc(-c2ccc(-c3cncc(Cl)c3N3CCC4(CC3)CNC(=O)O4)cc2)cn1 [Example 36, 8-{3-Chloro-5-[4-(1-isopropyl-1H-pyrazol-4-yl)-phenyl]-pyridin-4-yl}-1-oxa-3,8-diaza-spiro[4.5]decan-2-one] | 40 | 22 | 
4 | CC(C)n1cc(-c2ccc(-c3cncc(C(F)(F)F)c3N3CCC4(CC3)CNC(=O)O4)cc2)cn1 [Example 38, 8-{3-[4-(1-Isopropyl-1H-pyrazol-4-yl)-phenyl]-5-trifluoromethyl-pyridin-4-yl}-1-oxa-3,8-diaza-spiro[4.5]decan-2-one] | 16 | 33 | 
5 | Nc1n[nH]c2cc(-c3cncc(Cl)c3N3CCC4(CC3)CC(=O)NC4=O)ccc12 [Example 14, 8-[3-(3-Amino-1H-indazol-6-yl)-5-chloro-pyridin-4-yl]-2,8-diaza-spiro[4.5]decane-1,3-dione] | < 10 | 18 | 
6 | CS(=O)(=O)CCn1cc(-c2ccc(-c3cncc(Cl)c3N3CCC4(CC3)CNC(=O)O4)cc2)cn1 [Example 39, 8-(3-Chloro-5-{4-[1-(2-methanesulfonyl-ethyl)-1H-pyrazol-4-yl]-phenyl}-pyridin-4-yl)-1-oxa-3,8-diaza-spiro[4.5]decan-2-one] | 12 | 14 | 
7 | O=C1NCC2(CCN(c3c(Cl)cncc3-c3ccc4oc(=O)[nH]c4c3)CC2)O1 [Example 8, 8-[3-Chloro-5-(2-oxo-2,3-dihydro-benzooxazol-5-yl)-pyridin-4-yl]-1-oxa-3,8-diaza-spiro[4.5]decan-2-one] | 16 | 9.7 | 
8 | O=C1CCc2ccc(-c3cncc(Cl)c3N3CCC4(CCNC4=O)CC3)cc2N1 [Example 12, 7-[5-Chloro-4-(1-oxo-2,8-diaza-spiro[4.5]dec-8-yl)-pyridin-3-yl]-3,4-dihydro-1H-quinolin-2-one] | 27 | 43 | 
9 | CN1c2ccc(-c3cncc(Cl)c3N3CCC(C#N)(CCO)CC3)cc2CS1(=O)=O [Example 33, 5′-Chloro-4-(2-hydroxy-ethyl)-3′-(1-methyl-2,2-dioxo-2,3-dihydro-1H-2l6-benzo[c]isothiazol-5-yl)-3,4,5,6-tetrahydro-2H-[1,4′]bipyridinyl-4-carbonitrile] | 88 | 0.6 | 
10 | CC1=NC(=O)C2(CCN(c3c(Cl)cncc3-c3ccc(-c4cnn(C)c4)cc3)CC2)N1 [Example 20, 8-{3-Chloro-5-[4-(1-methyl-1H-pyrazol-4-yl)-phenyl]-pyridin-4-yl}-2-methyl-1,3,8-triaza-spiro[4.5]dec-2-en-4-one] | 24 | 22 | 
11 | CN1C(=O)Cc2cc(-c3cncc(Cl)c3N3CCC4(CC3)CNC(=O)O4)ccc21 [Example 11, 8-[3-Chloro-5-(1-methyl-2-oxo-2,3-dihydro-1H-indol-5-yl)-pyridin-4-yl]-1-oxa-3,8-diaza-spiro[4.5]decan-2-one] | < 10 | 33 | 
12 | O=C1NCC2(CCN(c3c(Cl)cncc3-c3ccc4cnccc4c3)CC2)O1 [Example 50, 8-(3-Chloro-5-isoquinolin-6-yl-pyridin-4-yl)-1-oxa-3,8-diaza-spiro[4.5]decan-2-one] | 28 | 23 | 
13 | Cn1ncc2cc(-c3cncc(Cl)c3N3CCC4(CC3)CNC(=O)O4)ccc21 [Example 4, 8-[3-Chloro-5-(1-methyl-1H-indazol-5-yl)-pyridin-4-yl]-1-oxa-3,8-diaza-spiro[4.5]decan-2-one] | 23 | 10 | 

Other lines, results leading:

Row | microsomal CLint at 0.8 μM [1] [µL/min/mg] | IC50 (Wnt pathway) [nM] | Human Clint ([1]; human liver microsomes 0.5 mg/mL protein) [µL/min/mg] | SMILES
14 | 89 | 1.1 |  | Cn1cc(-c2ccc(-c3cncc(Cl)c3N3CCC4(CC3)C(=O)Nc3ccccc34)cc2)cn1 [Example 69]
15 | 23 | 20 |  | O=C1NCC2(CCN(c3c(Cl)cncc3-c3ccc(-c4cnn(C5COC5)c4)cc3)CC2)O1 [Example 55, 8-{3-Chloro-5-[4-(1-oxetan-3-yl-1H-pyrazol-4-yl)-phenyl]-pyridin-4-yl}-1-oxa-3,8-diaza-spiro[4.5]decan-2-one]
16 | 66 | 0.66 |  | C#Cc1cncc(-c2ccc3c(c2)CS(=O)(=O)N3C)c1N1CCC2(CCNC2=O)CC1 [Example 81, 8-[3-Ethynyl-5-(1-methyl-2,2-dioxo-2,3-dihydro-1H-2l6-benzo[c]isothiazol-5-yl)-pyridin-4-yl]-2,8-diaza-spiro[4.5]decan-1-one]
17 | 31 | 37 |  | C[C@H]1NC(=O)OC12CCN(c1c(Cl)cncc1-c1ccc(-c3cnn(C)c3)cc1)CC2 [Example 100, (R)-8-{3-Chloro-5-[4-(1-methyl-1H-pyrazol-4-yl)-phenyl]-pyridin-4-yl}-4-methyl-1-oxa-3,8-diaza-spiro[4.5]decan-2-one]
18 | 39 | 5.2 |  | C[C@H]1NC(=O)OC12CCN(c1c(Cl)cncc1-c1ccc3c(c1)CS(=O)(=O)N3C)CC2 [Example 99, (R)-8-[3-Chloro-5-(1-methyl-2,2-dioxo-2,3-dihydro-1H-2l6-benzo[c]isothiazol-5-yl)-pyridin-4-yl]-4-methyl-1-oxa-3,8-diaza-spiro[4.5]decan-2-one]
19 | 30 | 3.8 |  | CC(C)n1cc(-c2ccc(-c3cncc(Cl)c3N3CCC4(CC3)NCNC4=O)cc2)cn1 [Example 78, 8-{3-Chloro-5-[4-(1-isopropyl-1H-pyrazol-4-yl)-phenyl]-pyridin-4-yl}-1,3,8-triaza-spiro[4.5]decan-4-one]
20 | 48 | 34 |  | O=C1CCc2cc(-c3cncc(Cl)c3N3CCC4(CCNC4=O)CC3)cnc2N1 [Example 93, 6-[5-Chloro-4-(1-oxo-2,8-diaza-spiro[4.5]dec-8-yl)-pyridin-3-yl]-3,4-dihydro-1H-[1,8]naphthyridin-2-one]
21 | < 10 | 28 |  | CC(C)n1cc2cc(-c3cncc(Cl)c3N3CCC4(CC3)CNC(=O)O4)ccc2n1 [Example 94, 8-[3-Chloro-5-(2-isopropyl-2H-indazol-5-yl)-pyridin-4-yl]-1-oxa-3,8-diaza-spiro[4.5]decan-2-one]
22 | 66 | 8.8 |  | O=C1CC2(CCN(c3c(Cl)cncc3-c3ccc(N4CCOCC4)cc3)CC2)C(=O)N1 [Example 90, 8-[3-Chloro-5-(4-morpholin-4-yl-phenyl)-pyridin-4-yl]-2,8-diaza-spiro[4.5]decane-1,3-dione]
23 | < 10 | 21 |  | CN1C(=O)Cc2cc(-c3cncc(Cl)c3N3CCC4(CC3)CC(=O)NC4=O)ccc21 [Example 65, 8-[3-Chloro-5-(1-methyl-2-oxo-2,3-dihydro-1H-indol-5-yl)-pyridin-4-yl]-2,8-diaza-spiro[4.5]decane-1,3-dione]
24 | 17 | 12 |  | CN1C(=O)Cc2ccc(-c3cncc(Cl)c3N3CCC(N)(C(N)=O)CC3)cc21 [Example 73, 4-Amino-5′-chloro-3′-(1-methyl-2-oxo-2,3-dihydro-1H-indol-6-yl)-3,4,5,6-tetrahydro-2H-[1,4′]bipyridinyl-4-carboxylic acid amide]
25 |  | 9.1 | 36 | CN1c2ccc(-c3cncc(F)c3N3CCC4(CCNC4=O)CC3)cc2CS1(=O)=O [Example 76, 8-[3-Fluoro-5-(1-methyl-2,2-dioxo-2,3-dihydro-1H-2l6-benzo[c]isothiazol-5-yl)-pyridin-4-yl]-2,8-diaza-spiro[4.5]decan-1-one]
